# Measured values: PubChem BioAssay (NCI)
#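 The concentration for 50% growth inhibition is given as GI50. Definition used: TGI = concentration required for complete inhibition of growth.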
# What was measured:
# Experiment in all cases: NCI anticancer screen, dose series, 384-well format
# UACC-62 melanoma = test system: UACC-62 melanoma
# OVCAR-3 ovarian = test system: OVCAR-3 ovarian
# SNB-75 CNS = test system: SNB-75 CNS
# UO-31 renal = test system: UO-31 renal
# BT-549 breast = test system: BT-549 breast
# MDA-MB-435 melanoma = test system: MDA-MB-435 melanoma
# HOP-62 NSCLC = test system: HOP-62 NSCLC
# HCC-2998 colon = test system: HCC-2998 colon
# A498 renal = test system: A498 renal
# KM12 colon = test system: KM12 colon
# NCI-H23 lung = test system: NCI-H23 lung
# MCF7 breast = test system: MCF7 breast
# OVCAR-4 ovarian = test system: OVCAR-4 ovarian
# T-47D breast = test system: T-47D breast
# M14 melanoma = test system: M14 melanoma
# HOP-92 NSCLC = test system: HOP-92 NSCLC
# 786-0 renal = test system: 786-0 renal
# SN12C renal = test system: SN12C renal
# IGROV1 ovarian = test system: IGROV1 ovarian
# NCI-H226 lung = test system: NCI-H226 lung
# OVCAR-5 ovarian = test system: OVCAR-5 ovarian
# HCT-15 colon = test system: HCT-15 colon
# MALME-3M melanoma = test system: MALME-3M melanoma
# MDA-MB-468 breast = test system: MDA-MB-468 breast
# HS 578T breast = test system: HS 578T breast
# SNB-19 CNS = test system: SNB-19 CNS
# SR leukemia = test system: SR leukemia
# TK-10 renal = test system: TK-10 renal
# PC-3 prostate = test system: PC-3 prostate
# SK-MEL-5 melanoma = test system: SK-MEL-5 melanoma
# NCI-H522 lung = test system: NCI-H522 lung
# K-562 leukemia = test system: K-562 leukemia
# SF-268 CNS = test system: SF-268 CNS
# UACC-257 melanoma = test system: UACC-257 melanoma
# HL-60(TB) leukemia = test system: HL-60(TB) leukemia
# MOLT-4 leukemia = test system: MOLT-4 leukemia
# SK-MEL-2 melanoma = test system: SK-MEL-2 melanoma
# HT29 colon = test system: HT29 colon
# ACHN renal = test system: ACHN renal
# HCT-116 colon = test system: HCT-116 colon
# SK-OV-3 ovarian = test system: SK-OV-3 ovarian
# NCI/ADR-RES ovarian = test system: NCI/ADR-RES ovarian
# NCI-H460 NSCLC = test system: NCI-H460 NSCLC
# NCI-H322M lung = test system: NCI-H322M lung
# RPMI-8226 leukemia = test system: RPMI-8226 leukemia
# SK-MEL-28 melanoma = test system: SK-MEL-28 melanoma
# COLO 205 colon = test system: COLO 205 colon
structure (smiles),measurement,setting,value
Cc1ccc(-c2nc(N)nc3c2nnn3Cc2cccc(CO[C@H]3CCOC3)n2)o1,GI50,UACC-62 melanoma,> 100 µM
same,TGI,UACC-62 melanoma,> 100 µM
same,GI50,OVCAR-3 ovarian,> 100 µM
same,TGI,OVCAR-3 ovarian,> 100 µM
same,GI50,SNB-75 CNS,> 100 µM
same,TGI,SNB-75 CNS,> 100 µM
same,GI50,UO-31 renal,> 100 µM
same,TGI,UO-31 renal,> 100 µM
same,GI50,BT-549 breast,> 100 µM
same,TGI,BT-549 breast,> 100 µM
same,GI50,MDA-MB-435 melanoma,> 100 µM
same,TGI,MDA-MB-435 melanoma,> 100 µM
same,GI50,HOP-62 NSCLC,> 100 µM
same,TGI,HOP-62 NSCLC,> 100 µM
same,GI50,HCC-2998 colon,> 100 µM
same,TGI,HCC-2998 colon,> 100 µM
same,GI50,A498 renal,> 100 µM
same,TGI,A498 renal,> 100 µM
same,GI50,KM12 colon,> 100 µM
same,TGI,KM12 colon,> 100 µM
same,GI50,NCI-H23 lung,> 100 µM
same,TGI,NCI-H23 lung,> 100 µM
same,GI50,MCF7 breast,> 100 µM
same,TGI,MCF7 breast,> 100 µM
same,GI50,OVCAR-4 ovarian,> 100 µM
same,TGI,OVCAR-4 ovarian,> 100 µM
same,GI50,T-47D breast,32.4 µM
same,TGI,T-47D breast,> 100 µM
same,GI50,M14 melanoma,> 100 µM
same,TGI,M14 melanoma,> 100 µM
same,GI50,HOP-92 NSCLC,> 100 µM
same,TGI,HOP-92 NSCLC,> 100 µM
same,GI50,786-0 renal,> 100 µM
same,TGI,786-0 renal,> 100 µM
same,GI50,SN12C renal,> 100 µM
same,TGI,SN12C renal,> 100 µM
same,GI50,IGROV1 ovarian,> 100 µM
same,TGI,IGROV1 ovarian,> 100 µM
same,GI50,NCI-H226 lung,> 100 µM
same,TGI,NCI-H226 lung,> 100 µM
same,GI50,OVCAR-5 ovarian,> 100 µM
same,TGI,OVCAR-5 ovarian,> 100 µM
same,GI50,HCT-15 colon,> 100 µM
same,TGI,HCT-15 colon,> 100 µM
same,GI50,MALME-3M melanoma,> 100 µM
same,TGI,MALME-3M melanoma,> 100 µM
same,GI50,MDA-MB-468 breast,35.5 µM
same,TGI,MDA-MB-468 breast,99 µM
same,GI50,HS 578T breast,> 100 µM
same,TGI,HS 578T breast,> 100 µM
same,GI50,SNB-19 CNS,> 100 µM
same,TGI,SNB-19 CNS,> 100 µM
same,GI50,SR leukemia,> 73.2 µM
same,TGI,SR leukemia,> 100 µM
same,GI50,TK-10 renal,> 100 µM
same,TGI,TK-10 renal,> 100 µM
same,GI50,PC-3 prostate,> 100 µM
same,TGI,PC-3 prostate,> 100 µM
same,GI50,SK-MEL-5 melanoma,> 53.9 µM
same,TGI,SK-MEL-5 melanoma,> 100 µM
same,GI50,NCI-H522 lung,> 100 µM
same,TGI,NCI-H522 lung,> 100 µM
same,GI50,K-562 leukemia,57.5 µM
same,TGI,K-562 leukemia,> 100 µM
same,GI50,SF-268 CNS,> 100 µM
same,TGI,SF-268 CNS,> 100 µM
same,GI50,UACC-257 melanoma,> 100 µM
same,TGI,UACC-257 melanoma,> 100 µM
same,GI50,HL-60(TB) leukemia,> 64.3 µM
same,TGI,HL-60(TB) leukemia,> 100 µM
same,GI50,MOLT-4 leukemia,42.2 µM
same,TGI,MOLT-4 leukemia,> 100 µM
same,GI50,SK-MEL-2 melanoma,> 100 µM
same,TGI,SK-MEL-2 melanoma,> 100 µM
same,GI50,HT29 colon,> 100 µM
same,TGI,HT29 colon,> 100 µM
same,GI50,ACHN renal,> 100 µM
same,TGI,ACHN renal,> 100 µM
same,GI50,HCT-116 colon,> 100 µM
same,TGI,HCT-116 colon,> 100 µM
same,GI50,SK-OV-3 ovarian,> 100 µM
same,TGI,SK-OV-3 ovarian,> 100 µM
same,GI50,NCI/ADR-RES ovarian,> 77.1 µM
same,TGI,NCI/ADR-RES ovarian,> 100 µM
same,GI50,NCI-H460 NSCLC,> 100 µM
same,TGI,NCI-H460 NSCLC,> 100 µM
same,GI50,NCI-H322M lung,> 100 µM
same,TGI,NCI-H322M lung,> 100 µM
same,GI50,RPMI-8226 leukemia,93.6 µM
same,TGI,RPMI-8226 leukemia,> 100 µM
same,GI50,SK-MEL-28 melanoma,> 100 µM
same,TGI,SK-MEL-28 melanoma,> 100 µM
same,GI50,COLO 205 colon,> 100 µM
same,TGI,COLO 205 colon,> 100 µM
Cc1cc(-c2nnc(N)nc2-c2ccc(F)cc2)cc(Cl)n1,GI50,UACC-62 melanoma,75.7 µM
same,TGI,UACC-62 melanoma,> 100 µM
same,GI50,OVCAR-3 ovarian,> 81.9 µM
same,TGI,OVCAR-3 ovarian,> 100 µM
same,GI50,SNB-75 CNS,> 100 µM
same,TGI,SNB-75 CNS,> 100 µM
same,GI50,UO-31 renal,88.6 µM
same,TGI,UO-31 renal,> 100 µM
same,GI50,BT-549 breast,88.8 µM
same,TGI,BT-549 breast,> 100 µM
same,GI50,MDA-MB-435 melanoma,> 100 µM
same,TGI,MDA-MB-435 melanoma,> 100 µM
same,GI50,HOP-62 NSCLC,> 82.1 µM
same,TGI,HOP-62 NSCLC,> 100 µM
same,GI50,HCC-2998 colon,> 100 µM
same,TGI,HCC-2998 colon,> 100 µM
same,GI50,A498 renal,> 100 µM
same,TGI,A498 renal,> 100 µM
same,GI50,KM12 colon,> 87.1 µM
same,TGI,KM12 colon,> 100 µM
same,GI50,NCI-H23 lung,32.5 µM
same,TGI,NCI-H23 lung,> 100 µM
same,GI50,MCF7 breast,> 100 µM
same,TGI,MCF7 breast,> 100 µM
same,GI50,OVCAR-4 ovarian,> 91.2 µM
same,TGI,OVCAR-4 ovarian,> 100 µM
same,GI50,T-47D breast,35.7 µM
same,TGI,T-47D breast,> 100 µM
same,GI50,M14 melanoma,> 100 µM
same,TGI,M14 melanoma,> 100 µM
same,GI50,HOP-92 NSCLC,> 50.9 µM
same,TGI,HOP-92 NSCLC,> 100 µM
same,GI50,786-0 renal,> 100 µM
same,TGI,786-0 renal,> 100 µM
same,GI50,SN12C renal,> 100 µM
same,TGI,SN12C renal,> 100 µM
same,GI50,IGROV1 ovarian,> 90.4 µM
same,TGI,IGROV1 ovarian,> 100 µM
same,GI50,NCI-H226 lung,> 100 µM
same,TGI,NCI-H226 lung,> 100 µM
same,GI50,OVCAR-5 ovarian,> 100 µM
same,TGI,OVCAR-5 ovarian,> 100 µM
same,GI50,HCT-15 colon,> 100 µM
same,TGI,HCT-15 colon,> 100 µM
same,GI50,MALME-3M melanoma,> 100 µM
same,TGI,MALME-3M melanoma,> 100 µM
same,GI50,MDA-MB-468 breast,16.6 µM
same,TGI,MDA-MB-468 breast,68.3 µM
same,GI50,HS 578T breast,62.8 µM
same,TGI,HS 578T breast,> 100 µM
same,GI50,SNB-19 CNS,> 100 µM
same,TGI,SNB-19 CNS,> 100 µM
same,GI50,SR leukemia,33.9 µM
same,TGI,SR leukemia,> 100 µM
same,GI50,TK-10 renal,44.3 µM
same,TGI,TK-10 renal,> 100 µM
same,GI50,PC-3 prostate,> 73.2 µM
same,TGI,PC-3 prostate,> 100 µM
same,GI50,SK-MEL-5 melanoma,88 µM
same,TGI,SK-MEL-5 melanoma,> 100 µM
same,GI50,NCI-H522 lung,42.9 µM
same,TGI,NCI-H522 lung,> 100 µM
same,GI50,K-562 leukemia,37.8 µM
same,TGI,K-562 leukemia,> 100 µM
same,GI50,SF-268 CNS,> 100 µM
same,TGI,SF-268 CNS,> 100 µM
same,GI50,UACC-257 melanoma,66.5 µM
same,TGI,UACC-257 melanoma,> 100 µM
same,GI50,HL-60(TB) leukemia,36.5 µM
same,TGI,HL-60(TB) leukemia,> 100 µM
same,GI50,MOLT-4 leukemia,30.5 µM
same,TGI,MOLT-4 leukemia,> 90.8 µM
same,GI50,SK-MEL-2 melanoma,> 100 µM
same,TGI,SK-MEL-2 melanoma,> 100 µM
same,GI50,HT29 colon,> 100 µM
same,TGI,HT29 colon,> 100 µM
same,GI50,ACHN renal,> 100 µM
same,TGI,ACHN renal,> 100 µM
same,GI50,HCT-116 colon,75.6 µM
same,TGI,HCT-116 colon,> 100 µM
same,GI50,SK-OV-3 ovarian,> 100 µM
same,TGI,SK-OV-3 ovarian,> 100 µM
same,GI50,NCI/ADR-RES ovarian,25.3 µM
same,TGI,NCI/ADR-RES ovarian,86.3 µM
same,GI50,NCI-H460 NSCLC,> 89.7 µM
same,TGI,NCI-H460 NSCLC,> 100 µM
same,GI50,NCI-H322M lung,> 100 µM
same,TGI,NCI-H322M lung,> 100 µM
same,GI50,RPMI-8226 leukemia,20.3 µM
same,TGI,RPMI-8226 leukemia,> 61.2 µM
same,GI50,SK-MEL-28 melanoma,> 100 µM
same,TGI,SK-MEL-28 melanoma,> 100 µM
same,GI50,COLO 205 colon,> 100 µM
same,TGI,COLO 205 colon,> 100 µM
